Measured values: article PMC3648344 (BMC Structural Biology, 2013)

Target: T1, ecMnmC (Escherichia coli, UniProt P77182)
T1 construct: gene mnmC; full-length bifunctional MnmC, 668 residues, ~75 kDa monomer; N-terminal His6 tag removed with thrombin; pET30a-LIC, expressed in E. coli BL21(DE3)
T1 sequence (P77182 1-668): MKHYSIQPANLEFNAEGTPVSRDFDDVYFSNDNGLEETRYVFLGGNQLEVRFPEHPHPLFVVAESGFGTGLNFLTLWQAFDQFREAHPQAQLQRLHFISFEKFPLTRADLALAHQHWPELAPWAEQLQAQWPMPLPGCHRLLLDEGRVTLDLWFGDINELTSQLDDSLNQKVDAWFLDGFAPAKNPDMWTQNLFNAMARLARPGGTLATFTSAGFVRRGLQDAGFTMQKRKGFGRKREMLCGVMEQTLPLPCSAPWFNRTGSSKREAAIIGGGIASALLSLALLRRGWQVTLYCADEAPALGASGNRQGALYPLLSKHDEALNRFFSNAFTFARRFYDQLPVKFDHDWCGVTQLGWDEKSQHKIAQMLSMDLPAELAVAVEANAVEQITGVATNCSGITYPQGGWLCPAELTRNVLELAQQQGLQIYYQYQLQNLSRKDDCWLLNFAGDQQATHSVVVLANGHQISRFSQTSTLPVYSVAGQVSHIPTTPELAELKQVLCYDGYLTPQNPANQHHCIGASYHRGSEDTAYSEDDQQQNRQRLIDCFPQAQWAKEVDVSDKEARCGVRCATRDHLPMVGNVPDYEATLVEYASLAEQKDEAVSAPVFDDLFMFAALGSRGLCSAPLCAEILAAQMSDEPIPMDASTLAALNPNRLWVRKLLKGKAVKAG
Assay: X-ray crystal structure, […] Å
Format: binding

SMILES	X-ray crystal structure, 2.55 Å (crystals soaked with 5 mM SAM, FAD bound, MnmC2 domain site)	X-ray crystal structure, 2.55 Å (co-purified FAD, none added, SAM bound, MnmC1 domain site)
C[S+](CC[C@H](N)C(=O)O)C[C@H]1O[C@@H](n2cnc3c(N)ncnc32)[C@H](O)[C@@H]1O (some centres unmarked) [SAM]	Our structures show that ecMnmC and ypMnmC bind SAM in an almost identical manner	
Cc1cc2nc3c(=O)[nH]c(=O)nc-3n(C[C@H](O)[C@H](O)[C@H](O)COP(=O)(O)OP(=O)(O)OC[C@H]3O[C@@H](n4cnc5c(N)ncnc54)[C@H](O)[C@@H]3O)c2cc1C [FAD]		All three MnmC structures unambiguously exhibited bound FAD (Figure 4A)
